Test results taken from paper PMC5418314, “First-in-human phase I study of SOR-C13, a TRPV6 calcium channel inhibitor, in patients with advanced solid tumors” (Investigational New Drugs, 2017).
Ends that are not written are not given here.

How the values were obtained:
[1] = tested on: ovarian cancer xenograft; experiment: xenograft model of ovarian cancer, tumor inhibition; type: in vivo
[2] = tested on: breast cancer xenograft; experiment: xenograft model of breast cancer, tumor inhibition; type: in vivo
[3] = tested on: advanced solid tumors of epithelial origin; experiment: Phase I anti-tumor activity (RECIST 1.1); type: in vivo, human
Method: (§1) Anti-tumor activity was evaluated by radiologic assessment of tumor size according to the New Response Evaluation Criteria in Solid Tumors (RECIST), Revised Guideline Version 1.1 [20] and changes in tumor-specific biomarker levels. The baseline radiologic assessment was performed ≤30 days prior to the first SOR-C13 dose. Tumor response was assessed after two cycles of treatment (between Days 15–21 of Cycle 2). For patients receiving additional cycles, tumor response was assessed after every 2 additional cycles, or earlier at the investigator’s discretion or as required by standard of care at the site.

[4] = tested on: CA 19–9; experiment: CA 19–9 tumor biomarker levels in pancreatic cancer patients; type: in vivo, human
Method: as §1
For pharmacodynamic information changes of the plasma biomarkers ‘cleaved cytokeratin 18’, (ccK18) and TRPV6 mRNA levels, in response to treatment, were evaluated. Blood samples for the assessment of ccK18, TRPV6 mRNA or other tumor-specific biomarkers were collected within 24 h prior to the first infusion of SOR-C13, on Day 1 of Cycle 2, once between Days 15–21 of Cycle 2, during additional cycles, and at the Month 1 follow-up. We set a low basal level of ccK18 as 250 U/L as a cut-off point representing the 95th percentile median of healthy volunteers (Peviva M30 Apoptosense ELISA assay product literature).

[5] = tested on: TRPV6; conditions: read-out: IC50, inhibition of TRPV6; cited from earlier work
Excerpt: SOR-C13 is a short segment (13-mer) from the C-terminus of a paralytic peptide soricidin (accession number P0C2P6) discovered in the saliva of the Northern Short-tailed shrew (Blarina brevicauda), abundant in eastern North America. While not paralytic themselves, C-series peptides blocked calcium uptake by ovarian cancer cells in in vitro studies. […] TRPV6 is predominantly found in non-excitable tissues wi ...

KEFLHPSKVDLPR [SOR-C13]
inhibition of tumors [1]: effective
inhibition of tumors [2]: effective
patients with stable disease after two cycles ([3]; 1.375 mg/kg, 90-min infusion): two out of the three patients
patients with stable disease ([3]; 12 of 22 evaluable patients, after two cycles, RECIST 1.1): 54.5%
patients with stable disease after 2 cycles ([3]; ovarian cancer (OVca) patients): two of the four
duration of stable disease ([3]; pancreatic cancer patient, 2.75 mg/kg, 90-min infusions): four cycles
duration of stable disease ([3]; pancreatic cancer patient, 6.2 mg/kg, 90-min infusions): over 10 cycles
reduction from baseline in the sum of tumor diameters ([3]; pancreatic cancer patient, 6.2 mg/kg, 90-min infusions, after 4 cycles): 27%
duration of stable disease (cycles received) ([3]; patient with adenoid cystic carcinoma of the tongue, 4.13 mg/kg): 18 cycles
decrease in CA 19–9 ([4]; pancreatic cancer patient treated at 6.25 mg/kg, after cycle 2): 29%
decrease in CA 19–9 ([4]; pancreatic cancer patient, 6.2 mg/kg, after cycle 4): 55%
IC50 [5]: 14 nM
